Assay results reported in US20160000912A1, “COMBINATION THERAPY OF A TYPE II ANTI-CD20 ANTIBODY WITH A PROTEASOME INHIBITOR” (Roche Glycart AG, priority 2007, published 2016).

Columns and labels:
[1] = tested on: SU-DHL-4 human Non-Hodgkin-Lymphoma (NHL) cells; assay: Tumor growth inhibition study in vivo, SU-DHL-4 xenografts; design: species or system SCID beige mice; conditions: 1 mg/kg i.p. once weekly
Description: Type II anti-CD20 antibody B-HH6-B-KV1 GE(=humanized B-Ly1, glycoengineered B-HH6-B-KV1, see WO 2005/044859 and WO 2007/031875) was provided as stock solution (c=9.4 mg/ml) from GlycArt, Schlieren, Switzerland. Antibody buffer included histidine, trehalose and polysorbate 20. Antibody solution was diluted appropriately in PBS from stock for prior injections.
Proteasome inhibitor bortezomib was purchased as clinical formulation from Janssen-Cilag GmbH, Neuss, Germany. Dilution was adjusted from reconstituted stock solution.
SU-DHL-4 human Non-Hodgkin-Lymphoma (NHL) cells (Chang, H., et al., Leuk Lymphoma. 8 (1992) 129-36) were kindly provided from DSMZ, Braunschweig. Tumor cell line was routinely cultured in RPMI medium (PAA, Laboratories, Austria) supplemented with 10% fetal bovine serum (PAA Laboratories, Austria) and 2 mM L-glutamine, at 37° C. in a water-saturated atmosphere at 5% CO2. Passage 5 was used for transplantation. […]
Animals were controlled daily for clinical symptoms and detection of adverse effects. For monitoring throughout the experiment body weight of animals was documented two times weekly and tumor volume was measured by caliper after staging. […]

[2] = target: T1, CD20 on Raji cells (ATCC-No. CCL-86) (Homo sapiens, UniProt P11836); assay: Ratio of the binding capacities to CD20 on Raji cells compared to rituximab (direct immunofluorescence, Cy5, FACSArray); conditions: Cy5-conjugated antibodies
T1 construct: generated by direct immunofluorescence using the Burkitt's lymphoma cell line Raji (ATCC-No. CCL-86); host or cells: Raji cells (Burkitt's lymphoma)
T1 sequence (P11836 1-297): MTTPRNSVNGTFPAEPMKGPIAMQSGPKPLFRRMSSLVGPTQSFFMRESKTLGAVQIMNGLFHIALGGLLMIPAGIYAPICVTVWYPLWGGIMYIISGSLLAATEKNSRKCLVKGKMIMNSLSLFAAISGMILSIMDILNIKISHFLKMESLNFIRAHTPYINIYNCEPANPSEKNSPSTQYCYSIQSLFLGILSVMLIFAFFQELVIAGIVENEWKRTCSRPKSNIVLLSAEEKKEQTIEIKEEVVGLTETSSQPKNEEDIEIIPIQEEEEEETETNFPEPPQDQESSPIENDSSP
Description: MFI is the mean fluorescent intensity. The “Cy5-labeling ratio” as used herein means the number of Cy5-label molecules per molecule antibody.
Raji cells (ATCC-No. CCL-86) were maintained in culture in RPMI-1640 medium (PanBiotech GmbH, Cat.-No. PO4-18500) containing 10% FCS (Gibco, Cat.-No.10500-064). […] 5*10^5 cells per sample were stained for 30 min at 4° C. Afterwards, cells were washed in culture medium. Propidium iodide (PI) staining was used to exclude dead cells.
Then the ratio of the binding capacities to CD20 on Raji cells (ATCC-No. CCL-86) is calculated according to the following formula: […]

Row | Compound | antitumor activity as single agent (in words) [1] | binding capacity compared to rituximab (in words) [2]
1 | CC(C)C[C@H](NC(=O)[C@H](Cc1ccccc1)NC(=O)c1cnccn1)B(O)O [bortezomib] | only slightly active | –
2 | B-HH6-B-KV1: Type II anti-CD20 antibody (humanized B-Ly1 antibody) of Example 2; FIG. 2 legend calls it B-HH6-B-KV1 GE | – | reduces binding capacity compared to rituximab
